Measured values published in ChEMBL document CHEMBL1149721, “New Alkaloids from Haplophyllum tuberculatum” (J Nat Prod, 1992).
Active and inactive are the calls of the source. No cut-off for these calls is given here.

These compounds were tested on Staphylococcus aureus (assay: Antimicrobial activity against Staphylococcus aureus at 100 ug/ml).
Assay type: functional, organism-based
In the case of `COc1c2ccoc2nc2c(CC=C(C)C)c(O)ccc12`, the Activity is reported as “inactive”.
`CC(=O)O[C@@H](CC[C@]1(C)O[C@@H]1COc1ccc(CCNC(=O)c2ccccc2)cc1)C(C)(C)OC(C)=O` was tested, and the Activity was “inactive”.
With `CC(=O)O[C@@H](CC[C@]1(C)O[C@@H]1COc1ccc(CCNC(=O)C=C(C)C)cc1)C(C)(C)OC(C)=O` the Activity was “inactive”.
In the case of `CC(=O)O[C@H](COc1ccc(CCNC(=O)c2ccccc2)cc1)[C@@]1(C)CC[C@@H](C(C)(C)OC(C)=O)O1`, the Activity is reported as “inactive”.
With `CC(=O)OC(C)(C)[C@@H]1CC[C@](C)([C@H](O)COc2ccc(CCNC(=O)c3ccccc3)cc2)O1` the Activity was “inactive”.
